Laboratory results taken from ChEMBL document CHEMBL4011590, “Structure-activity relationship studies on 3,5-dinitrophenyl tetrazoles as antitubercular agents” (Eur J Med Chem, 2017).
In brackets after ≈: the same amount, converted by molar mass.

Experiments:
Aspergillus fumigatus [1] = experiment: Antifungal activity against Aspergillus fumigatus 231 after 24 hrs by broth microdilution method; assay type: functional; details: Aspergillus fumigatus, 231, 24 h
Candida tropicalis [2] = experiment: Antifungal activity against Candida tropicalis 156 after 48 hrs by broth microdilution method; assay type: functional; details: Candida tropicalis, 156, 48 h
Staphylococcus aureus [3] = experiment: Antibacterial activity against Staphylococcus aureus ATCC 6538 after 48 hrs by broth microdilution method; assay type: functional; details: ATCC 6538, 48 h
Staphylococcus aureus [4] = experiment: Antibacterial activity against methicillin-resistant Staphylococcus aureus HK5996/08 after 24 hrs by broth microdilution method; assay type: functional; details: HK5996/08, 24 h
Nakaseomyces glabratus [5] = experiment: Antifungal activity against Candida glabrata 20/I after 24 hrs by broth microdilution method; assay type: functional
Klebsiella pneumoniae [6] = experiment: Antibacterial activity against Klebsiella pneumoniae HK11750/08 after 24 hrs by broth microdilution method; assay type: functional; details: HK11750/08, 24 h
Enterococcus sp. [7] = experiment: Antibacterial activity against Enterococcus sp. HK14365/08 after 48 hrs by broth microdilution method; assay type: functional; details: HK14365/08, 48 h
Candida tropicalis [8] = experiment: Antifungal activity against Candida tropicalis 156 after 24 hrs by broth microdilution method; assay type: functional; details: Candida tropicalis, 156, 24 h
Trichosporon asahii [9] = experiment: Antifungal activity against Trichosporon asahii 1188 after 48 hrs by broth microdilution method; assay type: functional; details: Trichosporon asahii, 1188, 48 h
[10] = test system: Mycobacterium tuberculosis; experiment: Antimycobacterial activity against Mycobacterium tuberculosis H37Rv CNCTC My 331/88 after 21 days by micromethod; assay type: functional; details: H37Rv CNCTC My 331/88, 504 h
CHO-K1 = experiment: Cytotoxicity against CHOK1 cells after 24 hrs by MTT assay; assay type: cell-based; details: Cricetulus griseus, CHO-K1, 24 h
Pseudomonas aeruginosa [11] = experiment: Antibacterial activity against Pseudomonas aeruginosa ATCC 9027 after 24 hrs by broth microdilution method; assay type: functional; details: ATCC 9027, 24 h
Lichtheimia corymbifera [12] = experiment: Antifungal activity against Absidia corymbifera 272 after 24 hrs by broth microdilution method; assay type: functional; details: Lichtheimia corymbifera, 272, 24 h
Aspergillus fumigatus [13] = experiment: Antifungal activity against Aspergillus fumigatus 231 after 48 hrs by broth microdilution method; assay type: functional; details: Aspergillus fumigatus, 231, 48 h
Pichia kudriavzevii [14] = experiment: Antifungal activity against Candida krusei E28 after 24 hrs by broth microdilution method; assay type: functional; details: E28, 24 h
Mycobacterium avium [15] = experiment: Antimycobacterial activity against Mycobacterium avium CNCTC My 330/80 after 21 days by micromethod; assay type: functional; details: CNCTC My 330/80, 504 h
Escherichia coli [16] = experiment: Antibacterial activity against Escherichia coli ATCC 8739 after 48 hrs by broth microdilution method; assay type: functional; details: ATCC 8739, 48 h
Mycobacterium kansasii [17] = experiment: Antimycobacterial activity against Mycobacterium kansasii isolate 6509/96 after 14 days by micromethod; assay type: functional; details: isolate 6509/96, 336 h
Mycobacterium kansasii [18] = experiment: Antimycobacterial activity against Mycobacterium kansasii isolate 6509/96 after 7 days by micromethod; assay type: functional; details: isolate 6509/96, 168 h
Pichia kudriavzevii [19] = experiment: Antifungal activity against Candida krusei E28 after 48 hrs by broth microdilution method; assay type: functional; details: E28, 48 h
[20] = test system: Staphylococcus epidermidis; experiment: Antibacterial activity against Staphylococcus epidermidis HK6966/08 after 48 hrs by broth microdilution method; assay type: functional; details: HK6966/08, 48 h
Mycobacterium avium [21] = experiment: Antimycobacterial activity against Mycobacterium avium CNCTC My 330/80 after 14 days by micromethod; assay type: functional; details: CNCTC My 330/80, 336 h
Klebsiella pneumoniae [22] = experiment: Antibacterial activity against Klebsiella pneumoniae HK11750/08 after 48 hrs by broth microdilution method; assay type: functional; details: HK11750/08, 48 h
Enterococcus sp. [23] = experiment: Antibacterial activity against Enterococcus sp. HK14365/08 after 24 hrs by broth microdilution method; assay type: functional; details: HK14365/08, 24 h
Staphylococcus aureus [24] = experiment: Antibacterial activity against Staphylococcus aureus ATCC 6538 after 24 hrs by broth microdilution method; assay type: functional; details: ATCC 6538, 24 h
Escherichia coli [25] = experiment: Antibacterial activity against Escherichia coli ATCC 8739 after 24 hrs by broth microdilution method; assay type: functional; details: ATCC 8739, 24 h
Klebsiella pneumoniae [26] = experiment: Antibacterial activity against extended spectrum beta-lactamase producing Klebsiella pneumoniae HK14368/08 after 24 hrs by broth microdilution method; assay type: functional; details: HK14368/08, 24 h
Pseudomonas aeruginosa [27] = experiment: Antibacterial activity against Pseudomonas aeruginosa ATCC 9027 after 48 hrs by broth microdilution method; assay type: functional; details: ATCC 9027, 48 h
Mycobacterium kansasii [28] = experiment: Antimycobacterial activity against Mycobacterium kansasii CNCTC My 235/80 after 21 days by micromethod; assay type: functional; details: CNCTC My 235/80, 504 h
Staphylococcus aureus [29] = experiment: Antibacterial activity against methicillin-resistant Staphylococcus aureus HK5996/08 after 48 hrs by broth microdilution method; assay type: functional; details: HK5996/08, 48 h
Mycobacterium kansasii [30] = experiment: Antimycobacterial activity against Mycobacterium kansasii isolate 6509/96 after 21 days by micromethod; assay type: functional; details: isolate 6509/96, 504 h
Lichtheimia corymbifera [31] = experiment: Antifungal activity against Absidia corymbifera 272 after 48 hrs by broth microdilution method; assay type: functional; details: Lichtheimia corymbifera, 272, 48 h
[32] = test system: Trichophyton mentagrophytes; experiment: Antifungal activity against Trichophyton mentagrophytes 445 after 120 hrs by broth microdilution method; assay type: functional; details: Trichophyton mentagrophytes, 445, 120 h
Mycobacterium kansasii [33] = experiment: Antimycobacterial activity against Mycobacterium kansasii CNCTC My 235/80 after 14 days by micromethod; assay type: functional; details: CNCTC My 235/80, 336 h
[34] = test system: Staphylococcus epidermidis; experiment: Antibacterial activity against Staphylococcus epidermidis HK6966/08 after 24 hrs by broth microdilution method; assay type: functional; details: HK6966/08, 24 h
Nakaseomyces glabratus [35] = experiment: Antifungal activity against Candida glabrata 20/I after 48 hrs by broth microdilution method; assay type: functional
Trichosporon asahii [36] = experiment: Antifungal activity against Trichosporon asahii 1188 after 24 hrs by broth microdilution method; assay type: functional; details: Trichosporon asahii, 1188, 24 h
Candida albicans [37] = experiment: Antifungal activity against Candida albicans ATCC 44859 after 48 hrs by broth microdilution method; assay type: functional; details: ATCC 44859, 48 h
[38] = test system: Trichophyton mentagrophytes; experiment: Antifungal activity against Trichophyton mentagrophytes 445 after 72 hrs by broth microdilution method; assay type: functional; details: Trichophyton mentagrophytes, 445, 72 h
Candida albicans [39] = experiment: Antifungal activity against Candida albicans ATCC 44859 after 24 hrs by broth microdilution method; assay type: functional; details: ATCC 44859, 24 h
[40] = test system: Mycobacterium tuberculosis; experiment: Antimycobacterial activity against Mycobacterium tuberculosis H37Rv CNCTC My 331/88 after 14 days by micromethod; assay type: functional; details: H37Rv CNCTC My 331/88, 336 h
Klebsiella pneumoniae [41] = experiment: Antibacterial activity against extended spectrum beta-lactamase producing Klebsiella pneumoniae HK14368/08 after 48 hrs by broth microdilution method; assay type: functional; details: HK14368/08, 48 h
Mycobacterium kansasii [42] = experiment: Antimycobacterial activity against Mycobacterium kansasii CNCTC My 235/80 after 7 days by micromethod; assay type: functional; details: CNCTC My 235/80, 168 h

O=[N+]([O-])c1cc(-c2nnn(CSc3nnnn3-c3ccc(Cl)c(Cl)c3)n2)cc([N+](=O)[O-])c1
MIC (Aspergillus fumigatus [1]): > 125 µM
MIC (Candida tropicalis [2]): > 125 µM
MIC (Staphylococcus aureus [3]): > 125 µM
MIC (Staphylococcus aureus [4]): > 125 µM
MIC (Nakaseomyces glabratus [5]): > 125 µM
MIC (Klebsiella pneumoniae [6]): > 125 µM
MIC (Enterococcus sp. [7]): > 125 µM
MIC (Candida tropicalis [8]): > 125 µM
MIC (Trichosporon asahii [9]): > 125 µM
MIC99 [10]: 0.03 µM (≈ 0.0149 µg/mL)
IC50 (CHO-K1): 8.7 µM
MIC (Pseudomonas aeruginosa [11]): > 125 µM
MIC (Lichtheimia corymbifera [12]): > 125 µM
MIC (Aspergillus fumigatus [13]): > 125 µM
MIC (Pichia kudriavzevii [14]): > 125 µM
MIC99 (Mycobacterium avium [15]): 8 µM (≈ 3.96 µg/mL)
MIC (Escherichia coli [16]): > 125 µM
MIC99 (Mycobacterium kansasii [17]): 0.06 µM (≈ 0.0297 µg/mL)
MIC99 (Mycobacterium kansasii [18]): 0.03 µM (≈ 0.0149 µg/mL)
MIC (Pichia kudriavzevii [19]): > 125 µM
MIC [20]: > 125 µM
MIC99 (Mycobacterium avium [21]): 4 µM (≈ 1.98 µg/mL)
MIC (Klebsiella pneumoniae [22]): > 125 µM
MIC (Enterococcus sp. [23]): > 125 µM
MIC (Staphylococcus aureus [24]): > 125 µM
MIC (Escherichia coli [25]): > 125 µM
MIC (Klebsiella pneumoniae [26]): > 125 µM
MIC (Pseudomonas aeruginosa [27]): > 125 µM
MIC99 (Mycobacterium kansasii [28]): 125 µM (≈ 61.9 µg/mL)
MIC (Staphylococcus aureus [29]): > 125 µM
MIC99 (Mycobacterium kansasii [30]): 0.06 µM (≈ 0.0297 µg/mL)
MIC (Lichtheimia corymbifera [31]): > 125 µM
MIC [32]: > 125 µM
MIC99 (Mycobacterium kansasii [33]): 0.125 µM (≈ 0.0619 µg/mL)
MIC [34]: > 125 µM
MIC (Nakaseomyces glabratus [35]): > 125 µM
MIC (Trichosporon asahii [36]): > 125 µM
MIC (Candida albicans [37]): > 125 µM
MIC [38]: > 125 µM
MIC (Candida albicans [39]): > 125 µM
MIC99 [40]: 0.03 µM (≈ 0.0149 µg/mL)
MIC (Klebsiella pneumoniae [41]): > 125 µM
MIC99 (Mycobacterium kansasii [42]): 0.06 µM (≈ 0.0297 µg/mL)

O=[N+]([O-])c1cc(-c2nnnn2Cc2ccccc2)cc([N+](=O)[O-])c1
MIC (Aspergillus fumigatus [1]): > 500 µM
MIC (Candida tropicalis [2]): 250 µM (≈ 81.6 µg/mL)
MIC (Staphylococcus aureus [3]): 62.5 µM (≈ 20.4 µg/mL)
MIC (Staphylococcus aureus [4]): 31.2 µM (≈ 10.2 µg/mL)
MIC (Nakaseomyces glabratus [5]): 250 µM (≈ 81.6 µg/mL)
MIC (Klebsiella pneumoniae [6]): 250 µM (≈ 81.6 µg/mL)
MIC (Enterococcus sp. [7]): 62.5 µM (≈ 20.4 µg/mL)
MIC (Candida tropicalis [8]): 250 µM (≈ 81.6 µg/mL)
MIC (Trichosporon asahii [9]): 250 µM (≈ 81.6 µg/mL)
MIC99 [10]: 2 µM (≈ 0.653 µg/mL)
IC50 (CHO-K1): 18 µM
MIC (Pseudomonas aeruginosa [11]): 500 µM (≈ 163 µg/mL)
MIC (Lichtheimia corymbifera [12]): 500 µM (≈ 163 µg/mL)
MIC (Aspergillus fumigatus [13]): > 500 µM
MIC (Pichia kudriavzevii [14]): 250 µM (≈ 81.6 µg/mL)
MIC99 (Mycobacterium avium [15]): 32 µM (≈ 10.4 µg/mL)
MIC (Escherichia coli [16]): 62.5 µM (≈ 20.4 µg/mL)
MIC99 (Mycobacterium kansasii [17]): 4 µM (≈ 1.31 µg/mL)
MIC99 (Mycobacterium kansasii [18]): 2 µM (≈ 0.653 µg/mL)
MIC (Pichia kudriavzevii [19]): 250 µM (≈ 81.6 µg/mL)
MIC [20]: 62.5 µM (≈ 20.4 µg/mL)
MIC99 (Mycobacterium avium [21]): 16 µM (≈ 5.22 µg/mL)
MIC (Klebsiella pneumoniae [22]): 125 µM (≈ 40.8 µg/mL)
MIC (Enterococcus sp. [23]): 62.5 µM (≈ 20.4 µg/mL)
MIC (Staphylococcus aureus [24]): 62.5 µM (≈ 20.4 µg/mL)
MIC (Escherichia coli [25]): 125 µM (≈ 40.8 µg/mL)
MIC (Klebsiella pneumoniae [26]): 250 µM (≈ 81.6 µg/mL)
MIC (Pseudomonas aeruginosa [27]): 500 µM (≈ 163 µg/mL)
MIC99 (Mycobacterium kansasii [28]): 8 µM (≈ 2.61 µg/mL)
MIC (Staphylococcus aureus [29]): 15.6 µM (≈ 5.1 µg/mL)
MIC99 (Mycobacterium kansasii [30]): 4 µM (≈ 1.31 µg/mL)
MIC (Lichtheimia corymbifera [31]): 500 µM (≈ 163 µg/mL)
MIC [32]: 500 µM (≈ 163 µg/mL)
MIC99 (Mycobacterium kansasii [33]): 8 µM (≈ 2.61 µg/mL)
MIC [34]: 62.5 µM (≈ 20.4 µg/mL)
MIC (Nakaseomyces glabratus [35]): 250 µM (≈ 81.6 µg/mL)
MIC (Trichosporon asahii [36]): 250 µM (≈ 81.6 µg/mL)
MIC (Candida albicans [37]): 62.5 µM (≈ 20.4 µg/mL)
MIC [38]: 500 µM (≈ 163 µg/mL)
MIC (Candida albicans [39]): 62.5 µM (≈ 20.4 µg/mL)
MIC99 [40]: 2 µM (≈ 0.653 µg/mL)
MIC (Klebsiella pneumoniae [41]): 125 µM (≈ 40.8 µg/mL)
MIC99 (Mycobacterium kansasii [42]): 8 µM (≈ 2.61 µg/mL)
